Source: article PMC9228282, “Catalytic Properties of Caseinolytic Protease Subunit of Plasmodium knowlesi and Its Inhibition by a Member of δ-Lactone, Hyptolide” (Molecules, 2022)
Where two headings read alike, the source gives them in different places.

Columns and labels:
[1] = molecular target: T1, caseinolytic protease proteolytic subunit of Plasmodium knowlesi (Pk-ClpP) (Plasmodium knowlesi, UniProt A0A384LAC0); experiment: chromogenic protease assay with N-CBZ-Glycine p-nitrophenyl ester on purified Pk-ClpP; format: biochemical
T1 construct: gene PKNH_0835300
T1 sequence (A0A384LAC0 141-372 limits assumed): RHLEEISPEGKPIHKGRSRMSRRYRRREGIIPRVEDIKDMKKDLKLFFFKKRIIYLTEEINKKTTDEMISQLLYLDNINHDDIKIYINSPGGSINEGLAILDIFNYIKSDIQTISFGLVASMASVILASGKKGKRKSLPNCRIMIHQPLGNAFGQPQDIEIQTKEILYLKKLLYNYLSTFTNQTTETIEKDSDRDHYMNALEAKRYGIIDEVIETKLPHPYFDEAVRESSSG

[2] = molecular target: caseinolytic protease proteolytic subunit (ClpP) of Plasmodium knowlesi (Plasmodium knowlesi); experiment: SEC; purified Pk-ClpP on HiLoad 16/60 Superdex 200pg, 50 mM Tris-HCl pH 8.0, 50 mM NaCl, 0.5 mL/min; size by comparison with protein markers
[3] = molecular target: T1, caseinolytic protease proteolytic subunit of Plasmodium knowlesi (Pk-ClpP)

CC(=O)O[C@H](/C=C\[C@H]1CC=CC(=O)O1)C[C@@H](OC(C)=O)[C@H](C)OC(C)=O [Hyp, hyptolide]
IC50 ([1]; read-out: IC50): 17.4 ± 1.44 nM

O=S(=O)(F)Cc1ccccc1 [PMSF, phenylmethylsulfonyl fluoride, reference compound]
IC50 [1]: 6.9 ± 0.18 nM

caseinolytic protease proteolytic subunit (ClpP) of Plasmodium knowlesi (enzyme)
stoichiometry N [2]: 7

O=C(CNC(=O)OCc1ccccc1)Oc1ccc([N+](=O)[O-])cc1 [N-CBZ-Glycine p-nitrophenyl ester]
Km [3]: 3.07 ± 0.18 µM
